Experiments:
[1] = cited from earlier work
[2] = Particle characteristics of LNPs containing EGFP mRNA and novel ionizable lipids; format: physicochemical; conditions: EGFP mRNA LNP 1.6:54.6:32.8:10.9
Summary of the method: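 LNPs of PEG-lipid, ionizable lipid, cholesterol and phospholipid in ethanol were mixed 1:1 with mRNA in 100 mM acetate pH 5 via T-junction, diluted in PBS, dialysed, concentrated to ~0.6 mg/mL and exchanged into 5 mM Tris, 10% sucrose, pH 8. Size and polydispersity by Zetasizer; nucleic acid by RiboGreen.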

[3] = Parent ionizable lipid remaining in liver at 24 h after EGFP mRNA LNP (LC-MS); format: in vivo; conditions: 24 h after IV 0.5 mg/kg EGFP mRNA LNP, female BALB/c mice (n = 4)
[4] = test system: EGFP expression in the liver; assay: Dose response of EGFP mRNA LNP, EGFP expression in liver; format: in vivo; conditions: 24 h, female BALB/c mice (n = 4)
Procedure: At 24 h post-dose, the novel lipid formulations reported dose-dependent increases in EGFP expression in the liver (Table 32).

[5] = Lipid clearance from liver over time after EGFP mRNA LNP (LC-MS); format: in vivo; conditions: IV 0.5 mg/kg EGFP mRNA LNP, female BALB/c mice (n = 4)
Procedure: (§1) Liver tissues were treated with PBS and homogenized with a FastPrep machine, 3 cycles of 5 m/s×15 s. Homogenates from the PBS-treated control animals was pooled and used for standard curve preparation. Samples were extracted into a deep well plate with 250 μL of an internal suitability standard. Plates were centrifuged for 15 min at 4° C. and 2000 rpm. Analysis was performed using an Agilent 6520 QTOF coupled to an Agilent 1290 UHPLC, using reverse-phase LC separation. Quantitation of the ionizable lipid was by MS/MS against a calibration curve spiked into appropriately matched blank matrix. Calibration used a similar class of synthetic lipid as internal standard.
At various timepoints post-dose, lipid levels were assessed in the liver. Some novel ionizable lipids reported more rapid clearance rates compared to the benchmark (Table 33).

[6] = test system: EGFP expression in the liver; assay: EGFP expression in liver after intravenous EGFP mRNA LNP (ELISA); conditions: 0.5 mg/kg IV, 24 h post-IV administration, BALB/c mice (n = 4)
Procedure: LNP formulations encapsulating enhanced green fluorescent protein mRNA were injected intravenously at 0.5 mg/kg to female BALB/c mice (6-8 weeks old). On day of injection, the LNP stocks were filtered and diluted to the required dosing concentration with phosphate buffered saline. At 24 hours post-administration, animals were anaesthetized with a lethal dosage of ketamine/xylazine. Liver samples (left lateral lobe) were collected, weighed, and flash frozen in liquid nitrogen. Liver samples were stored in FastPrep® tubes at −80° C. until analyzed for EGFP expression.
Liver homogenates were prepared in cell extraction buffer, diluted, and analyzed for EGFP protein levels using ELISA, according to manufacturer's instructions (Abcam, GFP ELISA Kit).

[7] = Particle characteristics of LNPs containing luciferase mRNA and novel ionizable lipids; format: physicochemical; conditions: Table 6; luciferase mRNA LNP 1.6:54.6:32.8:10.9
Summary of the method: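 LNPs made from PEG-lipid, ionizable lipid, cholesterol and phospholipid in ethanol, T-mixed with luciferase mRNA in 100 mM acetate pH 5. Products were dialysed, concentrated, and dialysed into 5 mM Tris, 10% sucrose, pH 8, then 0.2 μm filtered. mRNA was measured by RiboGreen, and size and polydispersity by dynamic light scattering on a Zetasizer.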

[8] = test system: luciferase activity in the liver; assay: Luciferase activity in liver after intravenous luciferase mRNA LNP; format: in vivo; conditions: Table 13; 0.5 mg/kg IV, 6 h post-IV administration, BALB/c mice (n = 4)
[9] = test system: human OTC expression in the liver; assay: Dose response of human OTC mRNA LNP, OTC expression in liver (ELISA); format: in vivo; conditions: 24 h, male C57BL/6 mice (n = 4)
Procedure: (§2) LNP formulations encapsulating ornithine transcarbamylase mRNA were injected intravenously at the specified dose levels to male C57BL/6 mice (6-8 weeks old).
Liver homogenates were prepared with PBS, Halt protease inhibitor cocktail and FastPrep homogenization, standardized to 2 mg/mL protein with a BCA Protein Assay, and then analyzed by ELISA. Briefly, samples were diluted with PBS and plated on Nunc Maxisorp plates. A standard curve using human […] protein was prepared from the naïve animal controls (vehicle). After 2 h incubation the plates were washed, and the primary antibody was added. After 1 h incubation, the secondary antibody was added and incubated for another hour. After washing, TMB Substrate was added for color development and the reaction was stopped with 2 N sulfuric acid. The plate was read at 450/570 OD.
At 24 h post-dose, the novel lipid formulations reported dose-dependent increases in human OTC expression in the liver (Table 15).

[10] = Parent ionizable lipid remaining in liver at 6 h after luciferase mRNA LNP (LC-MS); format: in vivo; conditions: 6 h after IV 0.5 mg/kg Luciferase mRNA LNP
[11] = Lipid clearance from liver over time after human OTC mRNA LNP (LC-MS); format: in vivo; conditions: IV 0.5 mg/kg human OTC mRNA LNP, male C57BL/6 mice (n = 4)
Procedure: as §2, §1
At various timepoints post-dose, lipid levels were assessed in the liver. Some novel ionizable lipids reported more rapid clearance rates compared to the benchmark (Table 19).

## CCCCCCCCC(CCCCCC)C(=O)OCCCCCCN(CCCCO)CCCCCCOC(=O)C(CCCCCC)CCCCCCCC (stereo not drawn) [ALC-0315]
[1]; ref: Comirnaty Assessment Report, European Medicines Agency
  Rate of metabolism (in words): metabolize at a similar rate to MC3

## CCCCCCCCCCN(C(=O)CCCN(C)C)C(CCCCCCCCC)CCCCCCC(F)C(=O)OC(CCCCCCCC)CCCCCCCC (stereo not drawn) [Compound 115, Heptadecan-9-yl 9-(N-decyl-4-(dimethylamino)butanamido)-2-fluorooctadecanoate]
[2]; Table 22
  Final Product % EE: 98%
  Final Product PDI: 0.04
  Final Product Z-avg: 72 nm
[3]; Table 30
  Parent ionizable lipid remaining in liver, Average: 27.15 nmol/g liver
[4]; 0.3 mg/kg IV
  EGFP expression: 2.98e+07 pg EGFP/g liver
[4]; 1 mg/kg IV
  EGFP expression: 1.31e+08 pg EGFP/g liver
[4]; 3 mg/kg IV
  EGFP expression: 3.41e+08 pg EGFP/g liver
[5]; 0.25 h post-dose
  Parent ionizable lipid remaining in liver, Average: 36.7 nmol/g liver
[5]; 1 h post-dose
  Parent ionizable lipid remaining in liver, Average: 51.3 nmol/g liver
[5]; 3 h post-dose
  Parent ionizable lipid remaining in liver, Average: 44.8 nmol/g liver
[5]; 6 h post-dose
  Parent ionizable lipid remaining in liver, Average: 45.3 nmol/g liver
[5]; 24 h post-dose
  Parent ionizable lipid remaining in liver, Average: 0.0 nmol/g liver
[5]; 168 h post-dose
  Parent ionizable lipid remaining in liver, Average: 1.3 nmol/g liver
[6]; Table 26
  EGFP: 6.06E+07 pg/g liver

## CCCCCCCCCCN(C(=O)CCCN(C)C)C(CCCCCCCCC)CCCCCCC(F)(F)C(=O)OCCC(CCCCCC)CCCCCC (stereo not drawn) [Compound 16, 3-hexylnonyl 9-(N-decyl-4-(dimethylamino)butanamido)-2,2-difluorooctadecanoate]
[7]
  Final Product % EE: 95%
  Final Product PDI: 0.10
  Final Product Z-avg: 76 nm
[8]
  Luc Activity: 4.39E+07 pg/g liver
[9]; 0.3 mg/kg IV
  Human OTC expression: 1155 ng hOTC/mg protein in liver
[9]; 1 mg/kg IV
  Human OTC expression: 4127 ng hOTC/mg protein in liver
[9]; 3 mg/kg IV
  Human OTC expression: 10316 ng hOTC/mg protein in liver
[10]; Table 17, female mice (n = 4)
  Parent ionizable lipid remaining in liver, Average: 6.32 nmol/g liver
[10]; Table 18, female BALB/c mice (n = 4)
  Parent ionizable lipid remaining in liver, Average: 17.06 nmol/g liver
[11]; 0.25 h post-dose
  Parent ionizable lipid remaining in liver, Average: 11.11 nmol/g liver
[11]; 1 h post-dose
  Parent ionizable lipid remaining in liver, Average: 15.47 nmol/g liver
[11]; 3 h post-dose
  Parent ionizable lipid remaining in liver, Average: 10.91 nmol/g liver
[11]; 6 h post-dose
  Parent ionizable lipid remaining in liver, Average: 4.71 nmol/g liver
[11]; 24 h post-dose
  Parent ionizable lipid remaining in liver, Average: 1.33 nmol/g liver
[11]; 168 h post-dose
  Parent ionizable lipid remaining in liver, Average: 0.04 nmol/g liver

## CCCCC/C=C\C/C=C\CCCCCCCCC(CCCCCCCC/C=C\C/C=C\CCCCC)OC(=O)CCCN(C)C [MC3]
[1]; in vivo
  Clearance from target tissues (in words): take several weeks to clear from target tissues

## CCCCCCCCCCN(C(=O)CCCN(C)C)C(CCCCCCCCC)CCCCC(F)(F)C(=O)OC(CCCCCCC)CCCCCCC (stereo not drawn) [Compound 101, Pentadecan-8-yl 7-(N-decyl-4-(dimethylamino)butanamido)-2,2-difluorohexadecanoate]
[2]; Table 21
  Final Product % EE: 100%
  Final Product PDI: 0.10
  Final Product Z-avg: 70 nm
[3]; Table 29
  Parent ionizable lipid remaining in liver, Average: 16.30 nmol/g liver
[4]; 0.3 mg/kg IV
  EGFP expression: 2.65e+07 pg EGFP/g liver
[4]; 1 mg/kg IV
  EGFP expression: 1.04e+08 pg EGFP/g liver
[4]; 3 mg/kg IV
  EGFP expression: 3.9e+08 pg EGFP/g liver
[5]; 0.25 h post-dose
  Parent ionizable lipid remaining in liver, Average: 23.8 nmol/g liver
[5]; 1 h post-dose
  Parent ionizable lipid remaining in liver, Average: 42.4 nmol/g liver
[5]; 3 h post-dose
  Parent ionizable lipid remaining in liver, Average: 26.9 nmol/g liver
[5]; 6 h post-dose
  Parent ionizable lipid remaining in liver, Average: 30.6 nmol/g liver
[5]; 24 h post-dose
  Parent ionizable lipid remaining in liver, Average: 12.6 nmol/g liver
[5]; 168 h post-dose
  Parent ionizable lipid remaining in liver, Average: 0.6 nmol/g liver
[6]; Table 25
  EGFP: 2.25E+05 pg/g liver
